Test results taken from patent US5164381A, “Pharmacologically active 1,5-diaryl-3-substituted pyrazoles and method for synthesizing the same” (Ortho Pharmaceutical Corporation, priority 1991, dated 1992).
Like-named read-outs stand apart in the source and are kept apart here.

Legend:
cyclooxygenase (CO) [1] = experiment: Inhibition of cyclooxygenase (CO)
[2] = tested on: total cells in synovial fluid of dog knee joint; experiment: Immune complex-induced synovitis in the dog knee joint: cellular infiltrate; assay type: in vivo, Mongrel dogs; settings: for cellular infiltrate (in words): 100 mg/kg orally; for cellular infiltrate (in words) / total cell number / cellular infiltration (in words): dog; for total cell number / cellular infiltration (in words): i.v. 25 mg/kg or orally
Method: (§1) The accuracy of the puncture was assured by the aspiration of clear, viscous synovial fluid (time 0 sample). The syringe was removed and immune complexes (see below) were injected into the synovial space. The synovial space was re-entered at various time intervals and synovial fluid was withdrawn. The volume of fluid was recorded and then added to 3.0 ml of 0.3% saline. A sample was removed and the number of cells present counted with the use of a hemocytometer and microscope to enumerate the total number of cells in the joint. The remaining sample was centrifuged at 1000×g for 10 minutes and the supernatant analyzed for prostaglandin E2 levels and leukotriene B4 levels.
(§2) To prepare the immune complex, two hundred milligrams of partially purified dog IgG was dissolved in 20 ml 0.9% sterile sodium chloride. The solution was clarified by centrifugation at 2230×G at 20° C. for 10 minutes. A 3 ml volume of the 10.0 mg/ml solution of dog IgG was mixed with 1 ml rabbit anti-dog IgG serum and incubated at room temperature for 20 minutes.
(§3) Four milliliters of saturated ammonium sulfate were added to the mixture to precipitate the complex and all free dog IgG and rabbit gamma globulin. The sample was then centrifuged (as above) and the pellet resuspended in 10 ml 0.9% sterile saline. One ml of this solution was injected into a knee joint.
(§4) Following the intra-articular administration of immune complexes synovial fluid samples were taken at 30 minutes, 1,2,4 and 24 hours, alternating knees for sampling (except at 24 hours when both knees were sampled).
(§5) The articular joint was entered and a zero hour synovial fluid sample was removed. 1 ml of immune complexes was injected into the synovial joint of both legs. […] Synovial fluid samples were taken at 30 minutes, 1, 2 and 4 hours. All samples were analyzed for total granulocyte count using a laser flow cytometer. Prostaglandin and leukotriene concentrations were determined with standard RIA techniques.

gastrointestinal = experiment: Gastrointestinal side effects in dogs after one week; assay type: in vivo; settings: doses up to 2700 mg/kg
Source text: (§6) All NSAIDs are inhibitors of CO and their potency against this enzyme activity correlates well with clinical doses used in rheumatic diseases. There is also a correlation between CO inhibition (decreased PGE2) and the ability to induce gastric lesions in the fasted rat model. All NSAIDs induce at least some gastrointestinal lesions within their therapeutic range.

in vivo = settings: rat, in vivo
Source text: as §6

gastrointestinal tract [3] = experiment: Ulcerogenicity in rats (gastric lesions, fasted rat model); settings: rats
Source text: as §6

bronchospasm / LTB4 = experiment: Arachidonic acid-induced bronchospasm and LTB4 blood levels in anesthetized guinea pigs; assay type: in vivo; settings: administered orally, guinea pigs
Method: Intravenous administration of 10 mg/kg AA to anesthetized guinea pigs pretreated with indomethacin (10 mg/kg) and propranolol (0.1 mg/kg) results in a sustained bronchospasm which is associated with increased blood levels of LTB4. […] In the dog, intraarticular injection of rabbit anti-dog-dog IgG immune complexes into the knee joint results in an acute synovitis characterized by an influx of inflammatory cells into the joint space as well as an increase in synovial fluid levels of PGE2 and LTB4.

5-lipoxygenase (5-LO) = experiment: Inhibition of 5-lipoxygenase (5-LO)
Leukotriene B4 = experiment: Immune complex-induced synovitis in the dog knee joint: leukotriene B4 levels; assay type: in vivo, Mongrel dogs; settings: for levels of LTB4 in the synovial fluid (in words): 100 mg/kg orally; for levels of LTB4 in the synovial fluid (in words) / LTB4 levels (in words): dog; for LTB4 levels (in words): i.v. 25 mg/kg or orally
Method: as §1, §2, §3, §4, §5

Prostaglandin E2 = experiment: Immune complex-induced synovitis in the dog knee joint: prostaglandin E2 levels; assay type: in vivo, Mongrel dogs; settings: for Prostaglandin E2 Levels: radioimmunoassay; for levels of PGE2 in the synovial fluid (in words): 100 mg/kg orally; for levels of PGE2 in the synovial fluid (in words) / PGE2 levels (in words): dog; for PGE2 levels (in words): i.v. 25 mg/kg or orally
Method: as §1, §2, §3, §4, §5

[4] = tested on: Lewis strain laboratory rats; experiment: In vivo alleviation of inflammation: polyarthritis (adjuvant, Mycobacterium butyricum) in rats, inhibition of paw volume increase; settings: Rattus norvegicus, po
gastrointestinal tract [5] = settings: suboptimal antiinflammatory doses; cited from earlier work
cyclooxygenase (CO) [6] = settings: cited from earlier work

## COc1ccc(-n2nc(CCC(=O)N(C)O)cc2-c2ccc(Cl)cc2)cc1 [Compound 3, 3-[5-(4-Chlorophenyl)-1-(4-methoxyphenyl)-3-pyrazolyl]-N-hydroxy-N-methylpropanamide]
Cyclooxygenase (CO) [1]
  inhibition of cyclooxygenase (CO) (in words): inhibits both the cyclooxygenase (CO) and 5-lipoxygenase (5-LO) enzymes
[2]; 25 mg/kg p.o., 0.5 HR
  Cellular Infiltrate Total Cells (× 10^6): 0.12 ± 0.04 × 10^6
[2]; 25 mg/kg p.o., 1 HR
  Cellular Infiltrate Total Cells (× 10^6): 0.39 ± 0.19 × 10^6
[2]; 25 mg/kg p.o., 2 HR
  % I (inhibition) of total cells: 7.4%
  Cellular Infiltrate Total Cells (× 10^6): 5.74 ± 2.5 × 10^6
[2]; 25 mg/kg p.o., 4 HR
  % I (inhibition) of total cells: 6.5%
  Cellular Infiltrate Total Cells (× 10^6): 46.3 ± 27.9 × 10^6
[2]
  cellular infiltrate (in words): reduces the cellular infiltrate
  total cell number / cellular infiltration (in words): significantly inhibits
[2]; 100 mg/kg p.o., 0.5 HR
  Cellular Infiltrate Total Cells (× 10^6): 0.26 ± 0.23 × 10^6
[2]; 100 mg/kg p.o., 1 HR
  Cellular Infiltrate Total Cells (× 10^6): 0.13 ± 0.07 × 10^6
[2]; 100 mg/kg p.o., 2 HR
  % I (inhibition) of total cells: 78%
  Cellular Infiltrate Total Cells (× 10^6): 1.35 ± 0.55 × 10^6
[2]; 100 mg/kg p.o., 4 HR
  % I (inhibition) of total cells: 55.2%
  Cellular Infiltrate Total Cells (× 10^6): 22.2 ± 6.6 × 10^6
gastrointestinal
  significant gastrointestinal side effects (in words): no significant gastrointestinal side effects
In vivo
  TD50: 173 mg/kg
  selectivity ratio: 58
Gastrointestinal tract [3]
  ulcerogenicity in the gastrointestinal tract (in words): reduced ulcerogenic activity
Gastrointestinal tract [3]; listed as compound 3
  ulcerogenicity in the gastrointestinal tract (in words): lack of ulcerogenicity in the gastrointestinal tract
Bronchospasm / LTB4
  inhibition of leukotriene production (in words): effective inhibitor of leukotriene production
5-lipoxygenase (5-LO)
  inhibition of 5-lipoxygenase (5-LO) (in words): inhibits both the cyclooxygenase (CO) and 5-lipoxygenase (5-LO) enzymes
Leukotriene B4; 25 mg/kg p.o., 1 Hr
  Leukotriene B4: 3.00 ± 1.2 ng/ml Synovial Fluid
Leukotriene B4; 25 mg/kg p.o., 2 Hr
  Leukotriene B4: 4.60 ± 2.10 ng/ml Synovial Fluid
Leukotriene B4; 25 mg/kg p.o., 4 Hr
  Leukotriene B4: 1.20 ± 0.6 ng/ml Synovial Fluid
Leukotriene B4
  levels of LTB4 in the synovial fluid (in words): reduces
  LTB4 levels (in words): significantly inhibits
Leukotriene B4; 100 mg/kg p.o., 0.5 Hr
  % I (inhibition) of leukotriene B4: 25%
  Leukotriene B4: 0.93 ± 0.26 ng/ml Synovial Fluid
Leukotriene B4; 100 mg/kg p.o., 1 Hr
  % I (inhibition) of leukotriene B4: 69%
  Leukotriene B4: 0.80 ± 0.09 ng/ml Synovial Fluid
Leukotriene B4; 100 mg/kg p.o., 2 Hr
  % I (inhibition) of leukotriene B4: 39%
  Leukotriene B4: 2.46 ± 0.94 ng/ml Synovial Fluid
Leukotriene B4; 100 mg/kg p.o., 4 Hr
  % I (inhibition) of leukotriene B4: 37%
  Leukotriene B4: 0.88 ± 0.23 ng/ml Synovial Fluid
Leukotriene B4; administered orally, dogs
  inhibition of leukotriene production (in words): effective inhibitor of leukotriene production
Prostaglandin E2; 25 mg/kg p.o., 1 Hr
  Prostaglandin E2 Levels: 2.34 ± 1 ng/mL
Prostaglandin E2; 25 mg/kg p.o., 2 Hr
  % I (inhibition) of prostaglandin E2 levels: 38.2%
  Prostaglandin E2 Levels: 2.96 ± 0.92 ng/mL
Prostaglandin E2; 25 mg/kg p.o., 4 Hr
  % I (inhibition) of prostaglandin E2 levels: 44.6%
  Prostaglandin E2 Levels: 2.27 ± 0.76 ng/mL
Prostaglandin E2
  levels of PGE2 in the synovial fluid (in words): reduces
  PGE2 levels (in words): significantly inhibits
Prostaglandin E2; 100 mg/kg p.o., 0.5 Hr
  Prostaglandin E2 Levels: 1.8 ± 1.29 ng/mL
Prostaglandin E2; 100 mg/kg p.o., 1 Hr
  Prostaglandin E2 Levels: 1.5 ± 1.05 ng/mL
Prostaglandin E2; 100 mg/kg p.o., 2 Hr
  % I (inhibition) of prostaglandin E2 levels: 97.9%
  Prostaglandin E2 Levels: 0.1 ± 0.08 ng/mL
Prostaglandin E2; 100 mg/kg p.o., 4 Hr
  % I (inhibition) of prostaglandin E2 levels: 42.4%
  Prostaglandin E2 Levels: 2.36 ± 0.53 ng/mL
[4]; adjuvant rat, read-out: dose which inhibits the inflammatory response of the adjuvant rat by 50 percent (ED50)
  ED50: 3 mg/kg
[4]; rat, read-out: ED50 (effective dose to obtain a 50% inhibition of inflammation)
  ED50: 4.1 mg/kg

## COc1ccc2cc([C@H](C)C(=O)O)ccc2c1 [Naproxen, reference compound]
[2]
  cellular infiltrate (in words): inhibited the cell infiltration
  total cell number / cellular infiltration (in words): inhibits
[2]; 100 mg/kg p.o., 0.5 HR
  Cellular Infiltrate Total Cells (× 10^6): 0.32 ± 0.11 × 10^6
[2]; 100 mg/kg p.o., 1 HR
  Cellular Infiltrate Total Cells (× 10^6): 0.02 ± 0.02 × 10^6
[2]; 100 mg/kg p.o., 2 HR
  % I (inhibition) of total cells: 36.6%
  Cellular Infiltrate Total Cells (× 10^6): 2.69 ± 0.63 × 10^6
[2]; 100 mg/kg p.o., 4 HR
  % I (inhibition) of total cells: 44.2%
  Cellular Infiltrate Total Cells (× 10^6): 27.6 ± 24 × 10^6
Gastrointestinal tract [5]
  ulcers in rats (in words): significant ulcers
Cyclooxygenase (CO) [6]
  inhibition of cyclooxygenase enzyme by NSAIDs (in words): only inhibit the cyclooxygenase enzyme
Leukotriene B4
  levels of LTB4 in the synovial fluid (in words): increased the LTB4 levels
  LTB4 levels (in words): does not decrease
Leukotriene B4; 100 mg/kg p.o., 0.5 Hr
  % I (inhibition) of leukotriene B4: 10.5%
  Leukotriene B4: 1.11 ± 0.36 ng/ml Synovial Fluid
Leukotriene B4; 100 mg/kg p.o., 1 Hr
  % I (inhibition) of leukotriene B4: -26.7%
  Leukotriene B4: 3.27 ± 1.53 ng/ml Synovial Fluid
Leukotriene B4; 100 mg/kg p.o., 2 Hr
  % I (inhibition) of leukotriene B4: -47.4%
  Leukotriene B4: 5.94 ± 1.33 ng/ml Synovial Fluid
Leukotriene B4; 100 mg/kg p.o., 4 Hr
  % I (inhibition) of leukotriene B4: -140%
  Leukotriene B4: 3.36 ± 1.28 ng/ml Synovial Fluid
Prostaglandin E2
  levels of PGE2 in the synovial fluid (in words): inhibited
  PGE2 levels (in words): inhibits PGE 2 levels
Prostaglandin E2; 100 mg/kg p.o., 0.5 Hr
  Prostaglandin E2 Levels: 0.83 ± 0.24 ng/mL
Prostaglandin E2; 100 mg/kg p.o., 1 Hr
  Prostaglandin E2 Levels: 1.67 ± 0.73 ng/mL
Prostaglandin E2; 100 mg/kg p.o., 2 Hr
  % I (inhibition) of prostaglandin E2 levels: 62.0%
  Prostaglandin E2 Levels: 1.88 ± 0.86 ng/mL
Prostaglandin E2; 100 mg/kg p.o., 4 Hr
  % I (inhibition) of prostaglandin E2 levels: 44.9%
  Prostaglandin E2 Levels: 2.2 ± 0.97 ng/mL
